# Legend:
# Format in all cases: functional
# [1] = tested on: Allium tuberosum; assay: Root growth inhibition of Allium tuberosum seedling at 1 x 10^-3 M after 10 days by agar dilution method relative to control; settings: 240 h, read-out: GI
# [2] = tested on: Brassica rapa subsp. oleifera; assay: Root growth inhibition of Brassica rapa subsp. oleifera seedling at 1 x 10^-3 M after 7 days by agar dilution method relative to control; settings: 168 h, read-out: GI
# [3] = tested on: Allium tuberosum; assay: Root growth promotion of Allium tuberosum seedling at 1 x 10^-3 M after 10 days by agar dilution method relative to control; settings: 240 h, read-out: GI
# [4] = tested on: Allium tuberosum; assay: Root growth inhibition of Allium tuberosum seedling at 5 x 10^-5 M after 10 days by agar dilution method relative to control; settings: 240 h, read-out: GI
# [5] = tested on: Allium tuberosum; assay: Root growth inhibition of Allium tuberosum seedling at 1 x 10^-4 M after 10 days by agar dilution method relative to control; settings: 240 h, read-out: GI
# [6] = tested on: Allium tuberosum; assay: Root growth inhibition of Allium tuberosum seedling at 5 x 10^-4 M after 10 days by agar dilution method relative to control; settings: 240 h, read-out: GI
# [7] = tested on: Brassica rapa subsp. oleifera; assay: Root growth inhibition of Brassica rapa subsp. oleifera seedling at 1 x 10^-4 M after 7 days by agar dilution method relative to control; settings: 168 h, read-out: GI
# [8] = tested on: Brassica rapa subsp. oleifera; assay: Root growth inhibition of Brassica rapa subsp. oleifera seedling at 5 x 10^-5 M after 7 days by agar dilution method relative to control; settings: 168 h, read-out: GI
# [9] = tested on: Brassica rapa subsp. oleifera; assay: Root growth inhibition of Brassica rapa subsp. oleifera seedling at 5 x 10^-4 M after 7 days by agar dilution method relative to control; settings: 168 h, read-out: GI
SMILES,inhibition of growth at 1000 µM [1],inhibition of growth at 1000 µM [2],inhibition of growth at 1000 µM [3],inhibition of growth at 50 µM [4],inhibition of growth at 100 µM [5],inhibition of growth at 500 µM [6],inhibition of growth at 100 µM [7],inhibition of growth at 50 µM [8],inhibition of growth at 500 µM [9]
CCOC(=O)C(Cc1ccco1)(NC(C)=O)C(=O)OCC,4%,26%,–,–,–,–,–,–,–
CCOC(=O)C(Cc1ccco1)(NC(C)=O)C(=O)O (configuration not stated),47%,66%,–,–,–,–,–,–,–
CCOC(=O)C(Cc1ccco1)(NC(C)=O)C(=O)Nc1ccccc1 (racemic),7%,3%,–,–,–,–,–,–,–
CCCCNC(=O)C(Cc1ccco1)(NC(C)=O)C(=O)OCC (racemic),4%,9%,–,–,–,–,–,–,–
CCOC(=O)C(Cc1ccco1)(NC(C)=O)C(=O)Nc1ccc(Cl)cc1 (racemic),–,49%,14%,–,–,–,–,–,–
CCOC(=O)C(Cc1ccco1)(NC(C)=O)C(=O)NCc1ccco1 (racemic),–,13%,36%,–,–,–,–,–,–
CCOC(=O)C(Cc1ccco1)(NC(C)=O)C(=O)Nc1nccs1 (racemic),29%,53%,–,–,–,–,–,–,–
CCOC(=O)C(Cc1ccco1)(NC(C)=O)C(=O)Nc1ncc(C)s1 (racemic),42%,61%,–,–,–,–,–,–,–
CCOC(=O)C(Cc1ccco1)(NC(C)=O)C(=O)Nc1ncc([N+](=O)[O-])s1 (racemic),54%,94%,–,–,–,–,–,–,–
CCOC(=O)C(Cc1ccco1)(NC(C)=O)C(=O)Nc1ncc(Br)s1 (racemic),56%,100%,–,30%,50%,53%,80%,21%,98%
CCOC(=O)C(Cc1ccco1)(NC(C)=O)C(=O)Nc1nc2c(Cl)cccc2s1 (racemic),70%,100%,–,10%,10%,50%,50%,41%,91%
"O=C(O)COc1ccc(Cl)cc1Cl [2,4-DICHLOROPHENOXYACETIC ACID]",100%,100%,–,97%,99%,100%,98%,98%,99%
